In this assay the test system is H929 myeloma cells. Nature of the assay: Cell cycle in siRNA-transfected H929 cells. The class given is cell-based. The following applies: 72 h treatment. Here is the method:
Cells were treated with DMSO or an amount of a compound provided herein for 48 hours. Propidium iodide staining for cell cycle was performed using CycleTEST PLUS (Becton Dickinson) according to manufacturer's protocol. Following staining, cells were analyzed by a FACSCalibur flow cytometer using ModFit LT software (Becton Dickinson).
The effect of cereblon in H929 myeloma cells was also evaluated. H929 cells were transfected with mock, negative control siRNA and CRBN-siRNA-7 for 24, 48, 72 and 96 hours.

The source of these data is patent publication US20180055844A1 (Celgene Corporation, priority 2011, published 2018).

As to `Cc1nc2cccc(N)c2c(=O)n1C1CCC(=O)NC1=O` (centres unmarked) [compound of Formula I, 3-(5-amino-2-methyl-4-oxo-4H-quinazolin-3-yl)-piperidine-2,6-dione], the “drug-induced delay in cell cycle progression (decrease of the number of cells in S phase)” value runs as follows: (H929, control (before CRBN knockdown)) 65%; (H929, knockdown of CRBN) 22%.
